# Results taken from patent US9393271B2, “GHRH agonists for islet cell transplantation and function and the treatment of diabetes” (UNIVERSITY OF MIAMI, priority 2012, dated 2016).
# Non-standard residues stand in square brackets, D forms with d. Residues, ends and D or L forms follow the SMILES beside them. *: point of attachment. Desaminotyrosyl = O=C(CCc1ccc(O)cc1)*; NMeY = CN[C@@H](Cc1ccc(O)cc1)C(=O)O; hArg = N=C(N)NCCCC[C@H](N)C(=O)O; Agmatine = N=C(N)NCCCCN*; Nle = CCCC[C@H](N)C(=O)O; Orn = NCCC[C@H](N)C(=O)O; Abu = CC[C@H](N)C(=O)O; Aoc = NCCCCCCCC(=O)O; Ava = NCCCCC(=O)O
# Legend:
# [1] = target: T1, GHRH receptor (human pituitary membrane homogenates) (Homo sapiens, UniProt Q02643); test: GHRH receptor binding, ligand competition with 125I-labeled [His1,Nle27]hGHRH(1-32)NH2 (Table 6); details: for Relative affinitiy (Binding potency) vs GHRH: GHRH(1-29) = 1; for Relative affinitiy (Binding potency) vs JI-38: JI-38 = 1
# T1 sequence (Q02643 23-423): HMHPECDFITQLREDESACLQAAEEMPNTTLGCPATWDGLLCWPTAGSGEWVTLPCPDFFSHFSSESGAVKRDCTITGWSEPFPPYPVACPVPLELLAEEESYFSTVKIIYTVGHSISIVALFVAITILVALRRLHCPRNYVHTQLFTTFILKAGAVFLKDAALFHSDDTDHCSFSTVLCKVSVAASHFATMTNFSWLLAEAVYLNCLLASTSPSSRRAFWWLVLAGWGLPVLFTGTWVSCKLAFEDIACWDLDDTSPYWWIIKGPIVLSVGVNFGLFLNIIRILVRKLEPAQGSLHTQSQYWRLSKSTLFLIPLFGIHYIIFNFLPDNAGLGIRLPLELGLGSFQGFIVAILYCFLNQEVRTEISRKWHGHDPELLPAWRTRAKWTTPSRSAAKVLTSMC
# [2] = system: GH level; test: In vivo endocrine activity (GH release), subcutaneous administration; details: rat, s.c. injection
# Method: Subcutaneous Administration. Adult male rats were used and anesthetized with pentobarbital (6 mg/100 g, b.w.), by i.p. injection. […] Blood samples were taken from the jugular vein 5, 15 and/or 30 minutes after the injection. The blood samples were centrifuged, plasma was removed and the GH level was measured by ELISA. The results are summarized in terms of potency in Table 9.
# [3] = target: T1, GHRH receptor (human pituitary membrane homogenates); test: GHRH receptor binding, ligand competition with 125I-labeled JV-1-42 (Table 7); set-up: Normal human pituitaries were purchased from the National Hormone and Peptide Program; tissue National Hormone and Peptide Program (A. F. Parlow, Harbor-UCLA Medical Center, Torrance, Calif.); host or cells: normal human pituitary, membrane fraction / homogenate; details: JI-38 = 1
Relative affinitiy (Binding potency) vs GHRH [1],Relative affinitiy (Binding potency) vs JI-38 [1],Compound,also measured
84.5,27.8,"CCCC[C@H](NC(=O)[C@@H](NC(=O)[C@H](CC(=O)O)NC(=O)[C@H](CCC(N)=O)NC(=O)[C@H](CC(C)C)NC(=O)[C@H](CC(C)C)NC(=O)[C@H](CCCN)NC(=O)[C@H](CCCNC(=N)N)NC(=O)[C@H](C)NC(=O)[C@H](CO)NC(=O)[C@H](CC(C)C)NC(=O)[C@H](CCC(N)=O)NC(=O)[C@H](CC)NC(=O)[C@H](CC(C)C)NC(=O)[C@@H](NC(=O)[C@H](CCCN)NC(=O)[C@H](CCCNC(=N)N)NC(=O)[C@H](Cc1ccc(O)cc1)NC(=O)[C@H](CO)NC(=O)[C@@H](NC(=O)[C@@H](NC(=O)[C@H](Cc1ccccc1)NC(=O)[C@@H](NC(=O)[C@H](C)NC(=O)[C@H](CC(=O)O)NC(=O)[C@@H](C)NC(=O)CCc1ccc(O)cc1)[C@@H](C)CC)[C@@H](C)O)[C@@H](C)O)C(C)C)[C@@H](C)CC)C(=O)N[C@@H](CC(=O)O)C(=O)N[C@@H](CCCNC(=N)N)C(=O)N[C@@H](CCCCNC(=N)N)C(N)=O [Peptide P-23254, [Dat^1, D-Ala^2, Thr^8, Orn^12, Abu^15, Orn^21, Nle^27, Asp^28, Har^30]hGHRH(1-30)NH2] (Desaminotyrosyl-[dA]DAIFTTSYR[Orn]VL[Abu]QLSAR[Orn]LLQDI[Nle]DR[hArg]-NH2)",
42.3,13.9,"CCCC[C@H](NC(=O)[C@@H](NC(=O)[C@H](CC(=O)O)NC(=O)[C@H](CCC(N)=O)NC(=O)[C@H](CC(C)C)NC(=O)[C@H](CC(C)C)NC(=O)[C@H](CCCN)NC(=O)[C@H](CCCNC(=N)N)NC(=O)[C@H](C)NC(=O)[C@H](CO)NC(=O)[C@H](CC(C)C)NC(=O)[C@H](CCC(N)=O)NC(=O)[C@H](CC)NC(=O)[C@H](CC(C)C)NC(=O)[C@@H](NC(=O)[C@H](CCCN)NC(=O)[C@H](CCCNC(=N)N)NC(=O)[C@H](Cc1ccc(O)cc1)NC(=O)[C@H](CO)NC(=O)[C@H](CC(N)=O)NC(=O)[C@@H](NC(=O)[C@H](Cc1ccccc1)NC(=O)[C@@H](NC(=O)[C@H](C)NC(=O)[C@H](CC(=O)O)NC(=O)[C@@H](C)NC(=O)CCc1ccc(O)cc1)[C@@H](C)CC)[C@@H](C)O)C(C)C)[C@@H](C)CC)C(=O)N[C@@H](CC(=O)O)C(=O)N[C@@H](CCCNC(=N)N)C(=O)N[C@@H](CCCCNC(=N)N)C(N)=O [Peptide P-23252, [Dat^1-D-Ala^2, Orn^12, Abu^15, Orn^21, Nle^27, Asp^28, Har^30]hGHRH(1-30)NH2] (Desaminotyrosyl-[dA]DAIFTNSYR[Orn]VL[Abu]QLSAR[Orn]LLQDI[Nle]DR[hArg]-NH2)",
148.0,48.7,"CCCC[C@H](NC(=O)[C@@H](NC(=O)[C@H](CC(=O)O)NC(=O)[C@H](CCC(N)=O)NC(=O)[C@H](CC(C)C)NC(=O)[C@H](CC(C)C)NC(=O)[C@H](CCCN)NC(=O)[C@H](CCCNC(=N)N)NC(=O)[C@H](C)NC(=O)[C@H](CO)NC(=O)[C@H](CC(C)C)NC(=O)[C@H](CCC(N)=O)NC(=O)[C@H](CC)NC(=O)[C@H](CC(C)C)NC(=O)[C@@H](NC(=O)[C@H](CCCN)NC(=O)[C@H](CCCNC(=N)N)NC(=O)[C@H](Cc1ccc(O)cc1)NC(=O)[C@H](CO)NC(=O)[C@H](C)NC(=O)[C@@H](NC(=O)[C@H](Cc1ccccc1)NC(=O)[C@@H](NC(=O)[C@H](C)NC(=O)[C@H](CC(=O)O)NC(=O)[C@@H](C)NC(=O)CCc1ccc(O)cc1)[C@@H](C)CC)[C@@H](C)O)C(C)C)[C@@H](C)CC)C(=O)N[C@@H](CC(=O)O)C(=O)N[C@@H](CCCNC(=N)N)C(=O)N[C@@H](CCCCNC(=N)N)C(N)=O [Peptide P-23256, [Dat^1, D-Ala^2, Ala^8, Orn^12, Abu^15, Orn^21, Nle^27, Asp^28, Har^30]hGHRH(1-30)NH2] (Desaminotyrosyl-[dA]DAIFTASYR[Orn]VL[Abu]QLSAR[Orn]LLQDI[Nle]DR[hArg]-NH2)",

# The remaining lines, values behind:
Compound,Relative affinitiy (Binding potency) vs GHRH [1],Relative affinitiy (Binding potency) vs JI-38 [1],also measured
"CCCC[C@H](NC(=O)[C@@H](NC(=O)[C@H](CC(=O)O)NC(=O)[C@H](CCC(N)=O)NC(=O)[C@H](CC(C)C)NC(=O)[C@H](CC(C)C)NC(=O)[C@H](CCCN)NC(=O)[C@H](CCCNC(=N)N)NC(=O)[C@H](C)NC(=O)[C@H](CO)NC(=O)[C@H](CC(C)C)NC(=O)[C@H](CCC(N)=O)NC(=O)[C@H](CC)NC(=O)[C@H](CC(C)C)NC(=O)[C@@H](NC(=O)[C@H](CCCN)NC(=O)[C@H](CCCNC(=N)N)NC(=O)[C@H](Cc1ccc(O)cc1)NC(=O)[C@H](CO)NC(=O)[C@@H](NC(=O)[C@@H](NC(=O)[C@H](Cc1ccccc1)NC(=O)[C@@H](NC(=O)[C@H](C)NC(=O)[C@H](CC(=O)O)NC(=O)[C@H](C)NC(=O)CCc1ccc(O)cc1)[C@@H](C)CC)[C@@H](C)O)[C@@H](C)O)C(C)C)[C@@H](C)CC)C(=O)N[C@@H](CC(=O)O)C(=O)NCCCCNC(=N)N [JI-36, reference compound] (Desaminotyrosyl-ADAIFTTSYR[Orn]VL[Abu]QLSAR[Orn]LLQDI[Nle]D-Agmatine; N-terminus and C-terminus assumed)",3.25,,
"CCCC[C@H](NC(=O)[C@@H](NC(=O)[C@H](CC(=O)O)NC(=O)[C@H](CCC(N)=O)NC(=O)[C@H](CC(C)C)NC(=O)[C@H](CC(C)C)NC(=O)[C@H](CCCN)NC(=O)[C@H](CCCNC(=N)N)NC(=O)[C@H](C)NC(=O)[C@H](CO)NC(=O)[C@H](CC(C)C)NC(=O)[C@H](CCC(N)=O)NC(=O)[C@H](CC)NC(=O)[C@H](CC(C)C)NC(=O)[C@@H](NC(=O)[C@H](CCCN)NC(=O)[C@H](CCCNC(=N)N)NC(=O)[C@H](Cc1ccc(O)cc1)NC(=O)[C@H](CO)NC(=O)[C@H](CCC(N)=O)NC(=O)[C@@H](NC(=O)[C@H](Cc1ccccc1)NC(=O)[C@@H](NC(=O)[C@H](C)NC(=O)[C@H](CC(=O)O)NC(=O)[C@@H](C)NC(=O)CCc1ccc(O)cc1)[C@@H](C)CC)[C@@H](C)O)C(C)C)[C@@H](C)CC)C(=O)N[C@@H](CC(=O)O)C(=O)N[C@@H](CCCNC(=N)N)C(=O)NCCCCCCCC(N)=O [Peptide P-21304, [Dat^1, D-Ala^2, Gln^8, Orn^12, Abu^15, Orn^21, Nle^27, Asp^28, Amc^30]hGHRH(1-30)NH2] (Desaminotyrosyl-[dA]DAIFTQSYR[Orn]VL[Abu]QLSAR[Orn]LLQDI[Nle]DR[Aoc]-NH2)",74.0,24.4,
"CCCC[C@H](NC(=O)[C@@H](NC(=O)[C@H](CC(=O)O)NC(=O)[C@H](CCC(N)=O)NC(=O)[C@H](CC(C)C)NC(=O)[C@H](CC(C)C)NC(=O)[C@H](CCCN)NC(=O)[C@H](CCCNC(=N)N)NC(=O)[C@H](C)NC(=O)[C@H](CO)NC(=O)[C@H](CC(C)C)NC(=O)[C@H](CCC(N)=O)NC(=O)[C@H](CC)NC(=O)[C@H](CC(C)C)NC(=O)[C@@H](NC(=O)[C@H](CCCN)NC(=O)[C@H](CCCNC(=N)N)NC(=O)[C@H](Cc1ccc(O)cc1)NC(=O)[C@H](CO)NC(=O)[C@H](CC(N)=O)NC(=O)[C@@H](NC(=O)[C@H](Cc1ccccc1)NC(=O)[C@@H](NC(=O)[C@H](C)NC(=O)[C@H](CC(=O)O)NC(=O)[C@H](C)NC(=O)CCc1ccc(O)cc1)[C@@H](C)CC)[C@@H](C)O)C(C)C)[C@@H](C)CC)C(=O)N[C@@H](CC(=O)O)C(=O)NCCCCNC(=N)N [JI-34, reference compound] (Desaminotyrosyl-ADAIFTNSYR[Orn]VL[Abu]QLSAR[Orn]LLQDI[Nle]D-Agmatine; N-terminus and C-terminus assumed)",4.32,,
"CCCC[C@H](NC(=O)[C@@H](NC(=O)[C@H](CC(=O)O)NC(=O)[C@H](CCC(N)=O)NC(=O)[C@H](CC(C)C)NC(=O)[C@H](CC(C)C)NC(=O)[C@H](CCCN)NC(=O)[C@H](CCCNC(=N)N)NC(=O)[C@H](C)NC(=O)[C@H](CO)NC(=O)[C@H](CC(C)C)NC(=O)[C@H](CCC(N)=O)NC(=O)[C@H](CC)NC(=O)[C@H](CC(C)C)NC(=O)[C@@H](NC(=O)[C@H](CCCN)NC(=O)[C@H](CCCNC(=N)N)NC(=O)[C@H](Cc1ccc(O)cc1)NC(=O)[C@H](CO)NC(=O)[C@H](CCC(N)=O)NC(=O)[C@@H](NC(=O)[C@H](Cc1ccccc1)NC(=O)[C@@H](NC(=O)[C@H](C)NC(=O)[C@H](CC(=O)O)NC(=O)[C@@H](C)NC(=O)[C@H](Cc1ccc(O)cc1)NC)[C@@H](C)CC)[C@@H](C)O)C(C)C)[C@@H](C)CC)C(=O)N[C@@H](CC(=O)O)C(=O)N[C@@H](CCCNC(=N)N)C(=O)NCCCCC(N)=O [Peptide P-22325, [N—Me-Tyr^1, Gln^8, Orn^12, Abu^15, Orn^21, Nle^27, Asp^28, Apa^30]hGHRH (1-30)NH2] (H-[NMeY][dA]DAIFTQSYR[Orn]VL[Abu]QLSAR[Orn]LLQDI[Nle]DR[Ava]-NH2)",,,GH releasing potency relative to JI-38 (=1) ([2]; 5 min after): 0.33; GH releasing potency relative to JI-38 (=1) ([2]; 15 min after): 0.68; GH releasing potency relative to JI-38 (=1) ([2]; 30 min after): 1.03; Relative affinitiy (Binding potency) vs JI-38 [3]: 1.14
